Assay results from patent US9499550B2 (BRISTOL-MYERS SQUIBB COMPANY, priority 2012, dated 2016).
Like-named read-outs stand apart in the source and are kept apart here.

How the values were obtained:
[1] = tested on: HCV genotype 1b (Con1) replicon in HUH-7 cells; test: HCV replicon luciferase reporter assay, genotype 1b; type: cell-based; conditions: HCV genotype 1b replicon luciferase, 3 days incubation, read-out: LE_1b (EC50, range)
Outline: (§1)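 Replicon inhibition for both genotypes was measured as Renilla luciferase signal (EnduRen, 7.5 μM final, 2 h) after 3-day, 37° C exposure of replicon-bearing HUH-7 cells in 4% FCS DMEM, 0.5% DMSO. The 1b construct carries S1179I; the 1a H77 construct carries P1496L and S2204I. Twenty-point, 3-fold dilutions were fitted four-parametrically for EC50, and CC50 was taken from multiplexed Cell Titer-Blue.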

[2] = tested on: HCV genotype 1a (H77 strain) replicon in HUH-7 cells; test: HCV replicon luciferase reporter assay, genotype 1a; type: cell-based; conditions: HCV genotype 1a replicon luciferase, 3 days incubation, read-out: LE_1a (EC50, range)
Outline: as §1

Question: Which EC50 [1] does the source give for C[C@@H]1CC/C=C\[C@@H]2C[C@@]2(C(=O)NS(=O)(=O)C2(CF)CC2)NC(=O)[C@@H]2C[C@@H](Oc3nc4c(c5ccccc35)OCCC4)CN2C(=O)[C@@H](NC(=O)OC(C)(C)C(C)(F)F)[C@H](C)C1 [Compound 6040, 3,3-difluoro-2-methylbutan-2-yl((2R,6S,7R,9R,13aS,14aR,16aS,Z)-2-((3,4-dihydro-2H-pyrano[3,2-c]isoquinolin-6-yl)oxy)-14a-(((1-(fluoromethyl)cyclopropyl)sulfonyl)carbamoyl)-7,9-dimethyl-5,16-dioxo-1,2,3,5,6,7,8,9,10,11,13a,14,14a,15,16,16a-hexadecahydrocyclopropa[e]pyrrolo[1,2-a][1,4]diazacyclopentadecin-6-yl)carbamate] here?
Answer: Its EC50 is 0.51 to 1 nM.

Question: And the EC50 [2]?
Answer: The EC50 was 1.01 to 5 nM.

Question: Which EC50 ([1]; Hepatitis C virus, Huh-7, 72 h) does the source give for C[C@@H]1CC/C=C\[C@@H]2C[C@@]2(C(=O)NS(=O)(=O)C2(CF)CC2)NC(=O)[C@@H]2C[C@@H](Oc3nc4c(c5ccccc35)CCCO4)CN2C(=O)[C@@H](NC(=O)OC(C)(C)C)[C@H](C)C1 [Compound 6042, tert-butyl ((2R,6S,7R,9R,13aS,14aR,16aS,Z)-2-((2,3-dihydro-1H-pyrano[2,3-c]isoquinolin-6-yl)oxy)-14a-(((1-(fluoromethyl)cyclopropyl)sulfonyl)carbamoyl)-7,9-dimethyl-5,16-dioxo-1,2,3,5,6,7,8,9,10,11,13a,14,14a,15,16,16a-hexadecahydrocyclopropa[e]pyrrolo[1,2-a][1,4]diazacyclopentadecin-6-yl)carbamate] here?
Answer: The EC50 was 0.51 to 1 nM.

Question: What about the EC50 ([2]; Hepatitis C virus, Huh-7, 72 h) of the same molecule?
Answer: The EC50 was 1.01 to 5 nM.

Question: How did the EC50 ([1]; Hepatitis C virus, Huh-7, 72 h) turn out when C[C@@H]1CC/C=C\[C@@H]2C[C@@]2(C(=O)NS(=O)(=O)C2(C)CC2)NC(=O)[C@@H]2C[C@@H](Oc3nc4c(c5ccccc35)CCCO4)CN2C(=O)[C@@H](NC(=O)OC(C)(C)C)[C@H](C)C1 [Compound 6044, tert-butyl ((2R,6S,7R,9R,13aS,14aR,16aS,Z)-2-((2,3-dihydro-1H-pyrano[2,3-c]isoquinolin-6-yl)oxy)-7,9-dimethyl-14a-(((1-methylcyclopropyl)sulfonyl)carbamoyl)-5,16-dioxo-1,2,3,5,6,7,8,9,10,11,13a,14,14a,15,16,16a-hexadecahydrocyclopropa[e]pyrrolo[1,2-a][1,4]diazacyclopentadecin-6-yl)carbamate] was run?
Answer: Its EC50 is 0.1 to 0.5 nM.

Question: And the EC50 ([2]; Hepatitis C virus, Huh-7, 72 h)?
Answer: Its EC50 is 1.01 to 5 nM.

Question: C[C@@H]1CC/C=C\[C@@H]2C[C@@]2(C(=O)NS(=O)(=O)C2(C)CC2)NC(=O)[C@@H]2C[C@@H](Oc3nc4c(c5ccccc35)CCCO4)CN2C(=O)[C@@H](NC(=O)OC(C)(C)C(F)(F)F)[C@H](C)C1 [Compound 6046, 1,1,1-trifluoro-2-methylpropan-2-yl((2R,6S,7R,9R,13aS,14aR,16aS,Z)-2-((2,3-dihydro-1H-pyrano[2,3-c]isoquinolin-6-yl)oxy)-7,9-dimethyl-14a-(((1-methylcyclopropyl)sulfonyl)carbamoyl)-5,16-dioxo-1,2,3,5,6,7,8,9,10,11,13a,14,14a,15,16,16a-hexadecahydrocyclopropa[e]pyrrolo[1,2-a][1,4]diazacyclopentadecin-6-yl)carbamate] was tested. Which EC50 ([1]; Hepatitis C virus, Huh-7, 72 h) did it give?
Answer: Its EC50 is 0.51 to 1 nM.

Question: What about the EC50 ([2]; Hepatitis C virus, Huh-7, 72 h) of the same molecule?
Answer: The EC50 was 1.01 to 5 nM.

Question: Which EC50 ([1]; Hepatitis C virus, Huh-7, 72 h) does the source give for C[C@@H]1CC/C=C\[C@@H]2C[C@@]2(C(=O)NS(=O)(=O)C2(C)CC2)NC(=O)[C@@H]2C[C@@H](Oc3nc4c(c5ccccc35)CCCO4)CN2C(=O)[C@@H](NC(=O)OC(C)(C)C(C)(F)F)[C@H](C)C1 [Compound 6048, 3,3-difluoro-2-methylbutan-2-yl((2R,6S,7R,9R,13aS,14aR,16aS,Z)-2-((2,3-dihydro-1H-pyrano[2,3-c]isoquinolin-6-yl)oxy)-7,9-dimethyl-14a-(((1-methylcyclopropyl)sulfonyl)carbamoyl)-5,16-dioxo-1,2,3,5,6,7,8,9,10,11,13a,14,14a,15,16,16a-hexadecahydrocyclopropa[e]pyrrolo[1,2-a][1,4]diazacyclopentadecin-6-yl)carbamate] here?
Answer: Its EC50 is 0.1 to 0.5 nM.

Question: And the EC50 ([2]; Hepatitis C virus, Huh-7, 72 h)?
Answer: The EC50 was 1.01 to 5 nM.

Question: With C[C@@H]1CC/C=C\[C@@H]2C[C@@]2(C(=O)NS(=O)(=O)C2(CF)CC2)NC(=O)[C@@H]2C[C@@H](Oc3nc4c(c5ccccc35)CCCO4)CN2C(=O)[C@@H](NC(=O)OC(C)(C)C(F)(F)F)[C@H](C)C1 [Compound 6050, 1,1,1-trifluoro-2-methylpropan-2-yl((2R,6S,7R,9R,13aS,14aR,16aS,Z)-2-((2,3-dihydro-1H-pyrano[2,3-c]isoquinolin-6-yl)oxy)-14a-(((1-(fluoromethyl)cyclopropyl)sulfonyl)carbamoyl)-7,9-dimethyl-5,16-dioxo-1,2,3,5,6,7,8,9,10,11,13a,14,14a,15,16,16a-hexadecahydrocyclopropa[e]pyrrolo[1,2-a][1,4]diazacyclopentadecin-6-yl)carbamate] as the molecule, how does the EC50 ([1]; Hepatitis C virus, Huh-7, 72 h) read?
Answer: The EC50 was 0.1 to 0.5 nM.

Question: And the EC50 ([2]; Hepatitis C virus, Huh-7, 72 h)?
Answer: The EC50 was 1.01 to 5 nM.

Question: For C[C@@H]1CC/C=C\[C@@H]2C[C@@]2(C(=O)NS(=O)(=O)C2(CF)CC2)NC(=O)[C@@H]2C[C@@H](Oc3nc4c(c5ccccc35)CCCO4)CN2C(=O)[C@@H](NC(=O)OC(C)(C)C(C)(F)F)[C@H](C)C1 [Compound 6052, 3,3-difluoro-2-methylbutan-2-yl((2R,6S,7R,9R,13aS,14aR,16aS,Z)-2-((2,3-dihydro-1H-pyrano[2,3-c]isoquinolin-6-yl)oxy)-14a-(((1-(fluoromethyl)cyclopropyl)sulfonyl)carbamoyl)-7,9-dimethyl-5,16-dioxo-1,2,3,5,6,7,8,9,10,11,13a,14,14a,15,16,16a-hexadecahydrocyclopropa[e]pyrrolo[1,2-a][1,4]diazacyclopentadecin-6-yl)carbamate], which EC50 ([1]; Hepatitis C virus, Huh-7, 72 h) is on record?
Answer: Its EC50 is 0.1 to 0.5 nM.

Question: What about the EC50 ([2]; Hepatitis C virus, Huh-7, 72 h) of the same molecule?
Answer: The EC50 was 5.01 to 35 nM.

Question: For CC[C@@H]1C[C@H](C)CC/C=C\[C@@H]2C[C@@]2(C(=O)NS(=O)(=O)C2(C)CC2)NC(=O)[C@@H]2C[C@@H](Oc3nc4c(c5ccccc35)CCCO4)CN2C(=O)[C@H]1NC(=O)OC(C)(C)C(F)(F)F [Compound 6054, 1,1,1-trifluoro-2-methylpropan-2-yl((2R,6S,7R,9R,13aS,14aR,16aS,Z)-2-((2,3-dihydro-1H-pyrano[2,3-c]isoquinolin-6-yl)oxy)-7-ethyl-9-methyl-14a-(((1-methylcyclopropyl)sulfonyl)carbamoyl)-5,16-dioxo-1,2,3,5,6,7,8,9,10,11,13a,14,14a,15,16,16a-hexadecahydrocyclopropa[e]pyrrolo[1,2-a][1,4]diazacyclopentadecin-6-yl)carbamate], which EC50 ([1]; Hepatitis C virus, Huh-7, 72 h) is on record?
Answer: Its EC50 is 0.1 to 0.5 nM.

Question: And the EC50 ([2]; Hepatitis C virus, Huh-7, 72 h)?
Answer: The EC50 was 1.01 to 5 nM.

Question: CC[C@@H]1C[C@H](C)CC/C=C\[C@@H]2C[C@@]2(C(=O)NS(=O)(=O)C2(C)CC2)NC(=O)[C@@H]2C[C@@H](Oc3nc4c(c5ccccc35)CCCO4)CN2C(=O)[C@H]1NC(=O)OC(C)(C)C(C)(F)F [Compound 6056, 3,3-difluoro-2-methylbutan-2-yl((2R,6S,7R,9R,13aS,14aR,16aS,Z)-2-((2,3-dihydro-1H-pyrano[2,3-c]isoquinolin-6-yl)oxy)-7-ethyl-9-methyl-14a-(((1-methylcyclopropyl)sulfonyl)carbamoyl)-5,16-dioxo-1,2,3,5,6,7,8,9,10,11,13a,14,14a,15,16,16a-hexadecahydrocyclopropa[e]pyrrolo[1,2-a][1,4]diazacyclopentadecin-6-yl)carbamate] was tested. Which EC50 ([1]; Hepatitis C virus, Huh-7, 72 h) did it give?
Answer: The EC50 was 0.1 to 0.5 nM.

Question: What about the EC50 ([2]; Hepatitis C virus, Huh-7, 72 h) of the same molecule?
Answer: Its EC50 is 1.01 to 5 nM.

Question: Which results are given for C[C@@H]1CC/C=C\[C@@H]2C[C@@]2(C(=O)NS(=O)(=O)C2(C)CC2)NC(=O)[C@@H]2C[C@@H](Oc3nccc4c5c(ccc34)CCCO5)CN2C(=O)[C@@H](NC(=O)OC(C)(C)C(F)(F)F)[C@H](C)C1 [Compound 6058, 1,1,1-trifluoro-2-methylpropan-2-yl((2R,6S,7R,9R,13aS,14aR,16aS,Z)-2-((3,4-dihydro-2H-pyrano[2,3-f]isoquinolin-7-yl)oxy)-7,9-dimethyl-14a-(((1-methylcyclopropyl)sulfonyl)carbamoyl)-5,16-dioxo-1,2,3,5,6,7,8,9,10,11,13a,14,14a,15,16,16a-hexadecahydrocyclopropa[e]pyrrolo[1,2-a][1,4]diazacyclopentadecin-6-yl)carbamate]?
Answer: EC50 ([1]; Hepatitis C virus, Huh-7, 72 h): 0.51 to 1 nM; EC50 ([2]; Hepatitis C virus, Huh-7, 72 h): 1.01 to 5 nM

Question: Which results are given for C[C@@H]1CC/C=C\[C@@H]2C[C@@]2(C(=O)NS(=O)(=O)C2(C)CC2)NC(=O)[C@@H]2C[C@@H](Oc3nccc4c5c(ccc34)CCCO5)CN2C(=O)[C@@H](NC(=O)OC(C)(C)C(C)(F)F)[C@H](C)C1 [Compound 6060, 3,3-difluoro-2-methylbutan-2-yl((2R,6S,7R,9R,13aS,14aR,16aS,Z)-2-((3,4-dihydro-2H-pyrano[2,3-f]isoquinolin-7-yl)oxy)-7,9-dimethyl-14a-(((1-methylcyclopropyl)sulfonyl)carbamoyl)-5,16-dioxo-1,2,3,5,6,7,8,9,10,11,13a,14,14a,15,16,16a-hexadecahydrocyclopropa[e]pyrrolo[1,2-a][1,4]diazacyclopentadecin-6-yl)carbamate]?
Answer: EC50 ([1]; Hepatitis C virus, Huh-7, 72 h): 1.01 to 5 nM; EC50 ([2]; Hepatitis C virus, Huh-7, 72 h): 1.01 to 5 nM

Question: Which results are given for CC[C@@H]1C[C@H](C)CC/C=C\[C@@H]2C[C@@]2(C(=O)NS(=O)(=O)C2(C)CC2)NC(=O)[C@@H]2C[C@@H](Oc3nccc4c5c(ccc34)CCCO5)CN2C(=O)[C@H]1NC(=O)OC(C)(C)C(F)(F)F [Compound 6062, 1,1,1-trifluoro-2-methylpropan-2-yl((2R,6S,7R,9R,13aS,14aR,16aS,Z)-2-((3,4-dihydro-2H-pyrano[2,3-f]isoquinolin-7-yl)oxy)-7-ethyl-9-methyl-14a-(((1-methylcyclopropyl)sulfonyl)carbamoyl)-5,16-dioxo-1,2,3,5,6,7,8,9,10,11,13a,14,14a,15,16,16a-hexadecahydrocyclopropa[e]pyrrolo[1,2-a][1,4]diazacyclopentadecin-6-yl)carbamate]?
Answer: EC50 ([1]; Hepatitis C virus, Huh-7, 72 h): 0.51 to 1 nM; EC50 ([2]; Hepatitis C virus, Huh-7, 72 h): 1.01 to 5 nM
